Several values for one entry are separate records, joined by “and”; a condition that tells them apart may be missing. Identical values can stand only once. Inconclusive results and toxic doses are left out.
Test system: P388 leukemia ip, CD2F1 mice, survival T/C
Assay: NCI In Vivo Anticancer Drug Screen. Data for tumor model P388 Leukemia (intraperitoneal) in CD2F1 (CDF1) mice
Conditions: endpoint: median survival time, higher = longer survival
How it was run: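 Mice carrying the transplanted tumor received test compound or vehicle. Survival was recorded in each group, and the value is the treated-group measurement divided by that of the vehicle-treated control group.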

[1] = dose: 25.0 mg/kg/injection, schedule: Q01DX009 (ip), vehicle: saline with Tween-80
[2] = dose: 50.0 mg/kg/injection, schedule: Q01DX009 (ip), vehicle: saline with Tween-80
[3] = dose: 100.0 mg/kg/injection, schedule: Q01DX009 (ip), vehicle: saline with Tween-80
[4] = dose: 200.0 mg/kg/injection, schedule: Q01DX009 (ip), vehicle: saline with Tween-80
[5] = dose: 50.0 mg/kg/injection, schedule: Q01DX005 (ip), vehicle: saline with Tween-80
[6] = dose: 100.0 mg/kg/injection, schedule: Q01DX005 (ip), vehicle: saline with Tween-80
[7] = dose: 60.0 mg/kg/injection, schedule: Q01DX005 (ip), vehicle: saline
[8] = dose: 120.0 mg/kg/injection, schedule: Q01DX005 (ip), vehicle: saline
[9] = dose: 240.0 mg/kg/injection, schedule: Q01DX005 (ip), vehicle: saline

## CCCSCCNC(=O)C1(O)C(O)C2(CC)C=CCN3CCC4(c5cc(C6(OC(C)=O)CC7C=C(CC)CN(CCc8c6[nH]c6ccccc86)C7)c(OC)cc5N(C)C14)C32 (centres undefined)
dose: 0.5 mg/kg/injection, schedule: Q01DX001 (ip), vehicle: water
  T/C: 107 % of control
dose: 2.0 mg/kg/injection, schedule: Q01DX001 (ip), vehicle: water
  T/C: 111 % of control
dose: 4.0 mg/kg/injection, schedule: Q01DX001 (ip), vehicle: water
  T/C: 159 % of control
dose: 8.0 mg/kg/injection, schedule: Q01DX001 (ip), vehicle: water
  T/C: 161 % of control
dose: 16.0 mg/kg/injection, schedule: Q01DX001 (ip), vehicle: water
  T/C: 158 % of control and 198 % of control

## Nc1nc(-c2ccccn2)cc2ccc(Cl)cc12
dose: 100.0 mg/kg/injection, schedule: Q01DX001 (ip), vehicle: saline with Tween-80
  T/C: 101 % of control
dose: 200.0 mg/kg/injection, schedule: Q01DX001 (ip), vehicle: saline with Tween-80
  T/C: 104 % of control
dose: 400.0 mg/kg/injection, schedule: Q01DX001 (ip), vehicle: saline with Tween-80
  T/C: 104 % of control

## CCC(C)(C)C(=O)Nc1cccc(OC(=O)NC)c1
[1]
  T/C: 100 % of control
[2]
  T/C: 92 % of control
[3]
  T/C: 101 % of control

## COC(=O)C(C)c1cc2ccccc2[nH]1 (centres undefined)
[1]
  T/C: 100 % of control
[2]
  T/C: 99 % of control
[3]
  T/C: 113 % of control

## N#CC12OC1(Cl)CCCC2(Cl)Cl (centres undefined)
[2]
  T/C: 95 % of control
[3]
  T/C: 95 % of control
[4]
  T/C: 86 % of control

## Nc1nc(Sc2ccc([N+](=O)[O-])c3nonc23)c2[nH]cnc2n1
dose: 12.5 mg/kg/injection, schedule: Q01DX009 (ip), vehicle: Klucel (hydroxypropylcellulose) (HPC)
  T/C: 115 % of control
dose: 25.0 mg/kg/injection, schedule: Q01DX009 (ip), vehicle: Klucel (hydroxypropylcellulose) (HPC)
  T/C: 88 % of control

## O=C(CBr)Nc1c(Br)cc(F)cc1Br
[2]
  T/C: 100 % of control
[3]
  T/C: 92 % of control
[4]
  T/C: 100 % of control

## Cc1ccc(NC(=S)SCc2ccc(Cl)cc2)cc1C
dose: 50.0 mg/kg/injection, schedule: Q01DX009 (ip), vehicle: suspension in saline
  T/C: 101 % of control
dose: 100.0 mg/kg/injection, schedule: Q01DX009 (ip), vehicle: suspension in saline
  T/C: 107 % of control
dose: 200.0 mg/kg/injection, schedule: Q01DX009 (ip), vehicle: suspension in saline
  T/C: 97 % of control

## C[Si](C)(C)CC[Si]12OCCN(C3CCCCC3O1)C1CCCCC1O2 (centres undefined)
dose: 50.0 mg/kg/injection, schedule: Q01DX005 (ip), vehicle: Klucel (hydroxypropylcellulose) (HPC)
  T/C: 94 % of control
dose: 100.0 mg/kg/injection, schedule: Q01DX005 (ip), vehicle: Klucel (hydroxypropylcellulose) (HPC)
  T/C: 104 % of control
dose: 200.0 mg/kg/injection, schedule: Q01DX005 (ip), vehicle: Klucel (hydroxypropylcellulose) (HPC)
  T/C: 105 % of control

## [N-]=[N+]=Nc1ccc(SSCCC(=O)ON2C(=O)CCC2=O)cc1
[5]
  T/C: 118 % of control
[6]
  T/C: 116 % of control

## CC(=O)OC12CCCCC(CCCC1)O2
dose: 100.0 mg/kg/injection, schedule: Q04DX003 (ip), vehicle: Klucel (hydroxypropylcellulose) (HPC)
  T/C: 100 % of control
dose: 200.0 mg/kg/injection, schedule: Q04DX003 (ip), vehicle: Klucel (hydroxypropylcellulose) (HPC)
  T/C: 99 % of control
dose: 400.0 mg/kg/injection, schedule: Q04DX003 (ip), vehicle: Klucel (hydroxypropylcellulose) (HPC)
  T/C: 100 % of control

## Clc1cc(-c2csc(Cl)c2)cs1
[1]
  T/C: 97 % of control
[2]
  T/C: 103 % of control and 97 % of control
[3]
  T/C: 109 % of control
[4]
  T/C: 96 % of control

## COc1cccc2c1C(=O)c1c(O)c3c(c(O)c1C2=O)C[C@@](O)(C(=O)CO)C[C@@H]3OC1CC(N)CC(C)O1 (some centres undefined)
dose: 0.1 mg/kg/injection, schedule: Q01DX009 (ip), vehicle: water
  T/C: 157 % of control
dose: 0.2 mg/kg/injection, schedule: Q01DX009 (ip), vehicle: water
  T/C: 154 % of control and 157 % of control
dose: 0.32 mg/kg/injection, schedule: Q01DX009 (ip), vehicle: saline
  T/C: 166 % of control
dose: 0.39 mg/kg/injection, schedule: Q01DX009 (ip), vehicle: water
  T/C: 173 % of control and 186 % of control
dose: 0.54 mg/kg/injection, schedule: Q01DX009 (ip), vehicle: saline
  T/C: 191 % of control
dose: 0.78 mg/kg/injection, schedule: Q01DX009 (ip), vehicle: water
  T/C: 185 % of control and 280 % of control
dose: 0.9 mg/kg/injection, schedule: Q01DX009 (ip), vehicle: saline
  T/C: 314 % of control
dose: 1.5 mg/kg/injection, schedule: Q01DX009 (ip), vehicle: saline
  T/C: 201 % of control
dose: 1.56 mg/kg/injection, schedule: Q01DX009 (ip), vehicle: water
  T/C: 157 % of control and 226 % of control and 89 % of control
dose: 1.8 mg/kg/injection, schedule: Q04DX003 (ip), vehicle: saline
  T/C: 200 % of control
dose: 3.0 mg/kg/injection, schedule: Q04DX003 (ip), vehicle: saline
  T/C: 154 % of control and 275 % of control
dose: 3.13 mg/kg/injection, schedule: Q04DX003 (ip), vehicle: water
  T/C: 158 % of control
dose: 12.5 mg/kg/injection, schedule: Q04DX003 (ip), vehicle: water
  T/C: 103 % of control

## COc1ccc(C(C)=O)cc1CS/C(=N/S(=O)(=O)c1ccccc1)Nc1cccc(Cl)c1Cl
dose: 50.0 mg/kg/injection, schedule: Q01DX009 (ip), vehicle: Klucel (hydroxypropylcellulose) (HPC)
  T/C: 101 % of control
dose: 100.0 mg/kg/injection, schedule: Q01DX009 (ip), vehicle: Klucel (hydroxypropylcellulose) (HPC)
  T/C: 101 % of control
dose: 200.0 mg/kg/injection, schedule: Q01DX009 (ip), vehicle: Klucel (hydroxypropylcellulose) (HPC)
  T/C: 98 % of control

## NC(=O)CC1(c2ccccc2)CCCCC1
[2]
  T/C: 111 % of control
[3]
  T/C: 102 % of control
[4]
  T/C: 104 % of control

## CN(C)CC1CCCC(CN(C)C)C1O (centres undefined)
dose: 50.0 mg/kg/injection, schedule: Q01DX005 (ip), vehicle: saline
  T/C: 99 % of control
dose: 100.0 mg/kg/injection, schedule: Q01DX005 (ip), vehicle: saline
  T/C: 94 % of control
dose: 200.0 mg/kg/injection, schedule: Q01DX005 (ip), vehicle: saline
  T/C: 93 % of control

## CCOP(O)(=S)OCC.[Y]
dose: 50.0 mg/kg/injection, schedule: Q01DX001 (ip), vehicle: Klucel (hydroxypropylcellulose) (HPC)
  T/C: 90 % of control
dose: 100.0 mg/kg/injection, schedule: Q01DX001 (ip), vehicle: Klucel (hydroxypropylcellulose) (HPC)
  T/C: 87 % of control
dose: 200.0 mg/kg/injection, schedule: Q01DX001 (ip), vehicle: Klucel (hydroxypropylcellulose) (HPC)
  T/C: 95 % of control

## CC(C)(O)c1cccs1
[7]
  T/C: 100 % of control
[8]
  T/C: 100 % of control
[9]
  T/C: 99 % of control

## CC(=O)Cc1cc(-c2cc(CC(C)=O)nc(N)n2)nc(N)n1
[7]
  T/C: 96 % of control
[8]
  T/C: 96 % of control
[9]
  T/C: 97 % of control

## CSc1nc(NC2OCC(O)C(O)C2O)c(C=O)c(=O)n1C (centres undefined)
dose: 60.0 mg/kg/injection, schedule: Q01DX005 (ip), vehicle: saline with Tween-80
  T/C: 96 % of control
dose: 120.0 mg/kg/injection, schedule: Q01DX005 (ip), vehicle: saline with Tween-80
  T/C: 97 % of control

## Cc1ccc2c(c1)C1(C)OC(C=CC1(C)O)O2 (centres undefined)
[5]
  T/C: 101 % of control
[6]
  T/C: 106 % of control
dose: 200.0 mg/kg/injection, schedule: Q01DX005 (ip), vehicle: saline with Tween-80
  T/C: 106 % of control

## Cc1cc(N/N=C/c2ccc(N(CCCl)CCCl)cc2)nc2ccc(Cl)cc12
dose: 50.0 mg/kg/injection, schedule: Q01DX009 (ip), vehicle: saline
  T/C: 97 % of control
dose: 100.0 mg/kg/injection, schedule: Q01DX009 (ip), vehicle: saline
  T/C: 100 % of control
dose: 200.0 mg/kg/injection, schedule: Q01DX009 (ip), vehicle: saline
  T/C: 100 % of control

## CC(=O)OCC1OC(OC(C)=O)C(NC(=O)CNC(=O)OCc2ccccc2)C(OC(C)=O)C1OC(C)=O (centres undefined)
dose: 12.5 mg/kg/injection, schedule: Q01DX009 (ip), vehicle: other
  T/C: 107 % of control
dose: 25.0 mg/kg/injection, schedule: Q01DX009 (ip), vehicle: other
  T/C: 100 % of control
dose: 50.0 mg/kg/injection, schedule: Q01DX009 (ip), vehicle: other
  T/C: 91 % of control
dose: 100.0 mg/kg/injection, schedule: Q01DX009 (ip), vehicle: other
  T/C: 89 % of control
dose: 200.0 mg/kg/injection, schedule: Q01DX009 (ip), vehicle: other
  T/C: 98 % of control

## O=c1n(-c2ccccc2)c(=O)n2n1C1C3C4C3C2C2(F)C4C12 (centres undefined)
dose: 3.0 mg/kg/injection, schedule: Q04DX002 (ip), vehicle: Klucel (hydroxypropylcellulose) (HPC)
  T/C: 95 % of control
dose: 6.0 mg/kg/injection, schedule: Q04DX002 (ip), vehicle: Klucel (hydroxypropylcellulose) (HPC)
  T/C: 101 % of control
dose: 12.5 mg/kg/injection, schedule: Q04DX002 (ip), vehicle: Klucel (hydroxypropylcellulose) (HPC)
  T/C: 108 % of control

— PubChem BioAssay AID330 (DTP/NCI, 2004)
